Results on four molecules are retold here after patent US20230265151A1, “GIP/GLP1 CO-AGONIST COMPOUNDS” (priority 2020, published 2023).

Holding throughout (type): cell-based
The target of one assay is T1, hGCGR (Homo sapiens, UniProt P47871).
T1 construct: expressed in transfected cells
Description: Functional cAMP formation (HTRF) in HEK-293 clonal cells expressing hGCGR, 0.1% bovine casein, without or with 1.0% human serum albumin. The settings on record: geometric mean. In outline: (§1)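 Cells were stimulated with peptide for 30 min at 37° C, then intracellular cAMP was measured by competitive HTRF (665/620 nm ratio) and converted to nM using a cAMP standard curve. Relative EC50 and Emax came from four-parameter logistic fits of percent maximal response against peptide concentration.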
On the technique in general: Cyclic AMP is a second messenger, typically raised through Gs and lowered through Gi signalling.

The target in the next assay is T2, hGIPR (Homo sapiens, UniProt P48546).
T2 construct: expressed in transfected cells
T2 sequence (P48546 22-466): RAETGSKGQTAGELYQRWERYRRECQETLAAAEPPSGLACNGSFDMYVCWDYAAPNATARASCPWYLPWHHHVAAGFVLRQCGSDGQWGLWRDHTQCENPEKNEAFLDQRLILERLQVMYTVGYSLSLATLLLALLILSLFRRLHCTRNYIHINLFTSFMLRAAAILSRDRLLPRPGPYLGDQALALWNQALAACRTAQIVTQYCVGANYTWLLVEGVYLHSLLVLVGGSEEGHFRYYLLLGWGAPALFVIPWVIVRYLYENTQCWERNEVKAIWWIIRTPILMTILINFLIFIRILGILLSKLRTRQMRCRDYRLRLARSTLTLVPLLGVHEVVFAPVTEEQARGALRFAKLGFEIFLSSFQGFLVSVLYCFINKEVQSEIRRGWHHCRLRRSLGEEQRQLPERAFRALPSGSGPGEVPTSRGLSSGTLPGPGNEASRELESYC
Description: Functional cAMP formation (HTRF) in HEK-293 clonal cells expressing hGIPR, 0.1% bovine casein, without or with 1.0% human serum albumin. The settings on record: for EC50: geometric mean; for Emax: percent of maximal response to GIP(1-42)NH2. In short, it runs like this: as §1

The target of a further assay is hGLP-1R (Homo sapiens, UniProt P43220). Description: Functional cAMP formation (HTRF) in HEK-293 clonal cells expressing hGLP-1R, 0.1% bovine casein, without or with 1.0% human serum albumin. Set-up: expressed in transfected cells. Particulars: for Emax: read-out: hGLP-1R Emax, % ± SEM; for EC50: geometric mean. In short, it runs like this: as §1
hGLP-1R, sequence (P43220 24-463): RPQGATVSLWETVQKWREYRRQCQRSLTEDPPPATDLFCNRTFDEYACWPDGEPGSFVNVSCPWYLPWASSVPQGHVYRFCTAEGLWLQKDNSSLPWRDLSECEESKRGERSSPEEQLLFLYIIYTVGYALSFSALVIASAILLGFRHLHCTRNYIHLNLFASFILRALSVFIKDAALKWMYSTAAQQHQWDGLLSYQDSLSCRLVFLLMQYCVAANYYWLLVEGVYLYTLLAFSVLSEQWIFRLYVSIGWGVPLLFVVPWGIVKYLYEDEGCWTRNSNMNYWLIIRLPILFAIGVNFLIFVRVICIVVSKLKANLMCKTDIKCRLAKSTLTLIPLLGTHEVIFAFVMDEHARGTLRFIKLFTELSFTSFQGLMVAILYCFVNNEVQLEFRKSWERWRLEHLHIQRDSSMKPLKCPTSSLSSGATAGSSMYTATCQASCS
Setting [1] is: 0.1% bovine casein and 1.0% human serum albumin, 37° C., read-out: hGCGR EC50, nM (SEM, n).
The mark [2] stands for this setting: cAMP, 37° C., 0.1% bovine casein (no human serum albumin), read-out: hGCGR EC50, nM (SEM, n).
Setting [3] is: 0.1% bovine casein and 1.0% human serum albumin, 37° C., read-out: hGIPR EC50, nM (SEM, n).
Where [4] appears, read: HEK293, 0.1% bovine casein and 1.0% human serum albumin, 37° C., read-out: hGIPR Emax, % ± SEM.
[5] abbreviates: HEK293, cAMP, 37° C., 0.1% bovine casein, arithmetic mean, read-out: hGIPR Emax, % ± SEM.
Where [6] appears, read: cAMP, 37° C., 0.1% bovine casein (no human serum albumin), read-out: hGIPR EC50, nM (SEM, n).
[7] abbreviates: HEK293, 0.1% bovine casein and 1.0% human serum albumin, 37° C., percent of maximal response to GLP-1(7-36)NH2.
The mark [8] stands for this setting: cAMP, 37° C., 0.1% bovine casein (no human serum albumin), read-out: hGLP-1R EC50, nM (SEM, n).

Where two headings read alike, the source gives them in different places. *1 amine or outer side, *2 acyl side, *3 side chain or, on linkers, in order; H or OH if unused. Where a SMILES comes first, the peptide text is derived from it. Side-chain parts run from the residue outwards. [ ]: non-standard residue; d: D form. The star is where a group is joined. αMePhe(2-F) = C[C@](N)(Cc1ccccc1F)C(=O)O; γGlu = O=C(O)[C@H](CCC(=O)[*:2])N[*:1]; αMeY = C[C@](N)(Cc1ccc(O)cc1)C(=O)O; αMeL = CC(C)C[C@](C)(N)C(=O)O; Lauroyl = CCCCCCCCCCCC(=O)*; Orn = NCCC[C@H](N)C(=O)O; AEEA = NCCOCCOCC(=O)O; Aib = CC(C)(N)C(=O)O

T1 sequence (P47871 26-477): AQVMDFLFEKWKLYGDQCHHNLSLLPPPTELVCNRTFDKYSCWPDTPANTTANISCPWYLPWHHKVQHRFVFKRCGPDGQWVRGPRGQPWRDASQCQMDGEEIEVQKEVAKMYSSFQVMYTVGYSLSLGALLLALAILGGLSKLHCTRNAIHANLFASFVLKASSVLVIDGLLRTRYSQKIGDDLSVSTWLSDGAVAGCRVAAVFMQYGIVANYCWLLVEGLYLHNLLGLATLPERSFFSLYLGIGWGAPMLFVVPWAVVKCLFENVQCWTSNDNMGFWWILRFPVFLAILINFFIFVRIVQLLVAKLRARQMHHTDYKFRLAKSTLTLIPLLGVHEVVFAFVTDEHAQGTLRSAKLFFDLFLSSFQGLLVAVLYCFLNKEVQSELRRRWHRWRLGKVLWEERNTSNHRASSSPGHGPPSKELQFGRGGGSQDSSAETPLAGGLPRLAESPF

Usually EC50 stands for the concentration giving half of the maximal effect. What is called Emax is the greatest response seen or fitted, relative to the assay's reference. As for `CC[C@H](C)[C@H](NC(=O)[C@H](CC(C)C)NC(=O)[C@](C)(Cc1ccc(O)cc1)NC(=O)[C@@H](CCC(=O)O)NC(=O)[C@@H](NC(=O)[C@H](Cc1ccccc1)NC(=O)[C@H](CCC(=O)O)NC(=O)C(C)(C)NC(=O)[C@H](CCC(N)=O)NC(=O)[C@H](C)NC(=O)[C@H](CCCCNC(=O)COCCOCCNC(=O)COCCOCCNC(=O)CCCCCCCCCCCCC(=O)O)NC(=O)[C@H](CCCN)NC(=O)[C@H](CC(=O)O)NC(=O)[C@H](CC(C)C)NC(=O)[C@](C)(CC(C)C)NC(=O)[C@@H](NC(=O)[C@H](CO)NC(=O)[C@H](Cc1ccc2ccccc2c1)NC(=O)[C@H](CC(=O)O)NC(=O)[C@H](CO)NC(=O)[C@@H](NC(=O)[C@](C)(Cc1ccccc1F)NC(=O)[C@@H](NC(=O)CNC(=O)[C@H](CCC(=O)O)NC(=O)C(C)(C)NC(=O)[C@@H](N)Cc1ccc(O)cc1)[C@@H](C)O)[C@@H](C)O)[C@@H](C)CC)[C@@H](C)CC)C(=O)N[C@@H](CCCCNC(=O)COCCOCCNC(=O)COCCOCCNC(=O)CCCCCCCCCCCCC(=O)O)C(=O)NCC(=O)NCC(=O)N1CCC[C@H]1C(=O)N[C@@H](CO)C(=O)N[C@@H](CO)C(=O)NCC(=O)N[C@@H](C)C(=O)N1CCC[C@H]1C(=O)N1CCC[C@H]1C(=O)N1CCC[C@H]1C(=O)N[C@@H](CO)C(N)=O` [Example 256], the 50% effective concentration (EC50) at hGCGR (setting [1]) was above 9950 nM; on hGCGR (setting [2]), above 9950 nM; at hGIPR (setting [3]), 1.5 nM; on hGIPR (setting [6]), 0.0175 nM; on hGLP-1R (setting [8]), 0.249 nM. For the same molecule, the maximum response (Emax) is 75.3% at hGIPR (setting [4]); 97.7% at hGIPR (setting [5]); 95.5% at hGLP-1R (setting [7]); 95.4% on hGLP-1R (HEK293, cAMP, 37° C., 0.1% bovine casein, percent of maximal response to GLP-1(7-36)NH2, arithmetic mean).
For `CC[C@H](C)[C@H](NC(=O)[C@H](CC(C)C)NC(=O)[C@](C)(Cc1ccc(O)cc1)NC(=O)[C@@H](CCC(=O)O)NC(=O)[C@@H](NC(=O)[C@H](Cc1ccccc1)NC(=O)[C@H](CCC(=O)O)NC(=O)C(C)(C)NC(=O)[C@H](CCC(N)=O)NC(=O)[C@H](C)NC(=O)[C@H](CCCCNC(=O)COCCOCCNC(=O)COCCOCCNC(=O)CC[C@H](NC(=O)CCCCCCCCCCCCC(=O)O)C(=O)O)NC(=O)[C@H](CCCN)NC(=O)[C@H](CC(=O)O)NC(=O)[C@H](CC(C)C)NC(=O)[C@](C)(CC(C)C)NC(=O)[C@@H](NC(=O)[C@H](CO)NC(=O)[C@](C)(CC(C)C)NC(=O)[C@H](CC(=O)O)NC(=O)[C@H](CO)NC(=O)[C@@H](NC(=O)[C@](C)(Cc1ccccc1F)NC(=O)[C@@H](NC(=O)CNC(=O)[C@H](CCC(=O)O)NC(=O)C(C)(C)NC(=O)[C@@H](N)Cc1ccc(O)cc1)[C@@H](C)O)[C@@H](C)O)[C@@H](C)CC)[C@@H](C)CC)C(=O)N[C@@H](CCC(=O)O)C(=O)NCC(=O)NCC(=O)N[C@@H](CCCCNC(=O)COCCOCCNC(=O)COCCOCCNC(=O)CC[C@H](NC(=O)CCCCCCCCCCCCC(=O)O)C(=O)O)C(=O)N[C@@H](CO)C(=O)N[C@@H](CO)C(=O)NCC(=O)N[C@@H](C)C(=O)N1CCC[C@H]1C(=O)N1CCC[C@H]1C(=O)N1CCC[C@H]1C(=O)N[C@@H](CO)C(N)=O` [Example 51], the EC50 on hGCGR (setting [1]) is above 9950 nM; at hGCGR (cAMP, incubated at 37° C., 0.1% bovine casein (no human serum albumin), read-out: hGCGR EC50, nM (SEM, n)), above 9950 nM; at hGIPR (cAMP, incubated at 37° C., 0.1% bovine casein (no human serum albumin), read-out: hGIPR EC50, nM (SEM, n)), 0.11 nM. In addition, the Emax on hGIPR (setting [4]) was found to be 90.7%; on hGLP-1R (setting [7]) it was 92.9%; at hGLP-1R (HEK293, percent of maximal response to GLP-1(7-36)NH2, 37° C., 0.1% bovine casein, arithmetic mean), 85.7 ± 9.8%.
For the molecule `CC[C@H](C)[C@H](NC(=O)[C@H](CC(C)C)NC(=O)[C@](C)(Cc1ccc(O)cc1)NC(=O)[C@@H](CCC(=O)O)NC(=O)[C@@H](NC(=O)[C@H](Cc1ccccc1)NC(=O)[C@H](CCC(=O)O)NC(=O)C(C)(C)NC(=O)[C@H](CCC(N)=O)NC(=O)[C@H](C)NC(=O)[C@H](CCCCNC(=O)COCCOCCNC(=O)COCCOCCNC(=O)CC[C@H](NC(=O)CCCCCCCCCOc1ccc(C(=O)O)cc1)C(=O)O)NC(=O)[C@H](CCCN)NC(=O)[C@H](CC(=O)O)NC(=O)[C@H](CC(C)C)NC(=O)[C@](C)(CC(C)C)NC(=O)[C@@H](NC(=O)C(C)(C)NC(=O)[C@H](Cc1ccc(O)cc1)NC(=O)[C@H](CC(=O)O)NC(=O)[C@H](CO)NC(=O)[C@@H](NC(=O)[C@](C)(Cc1ccccc1F)NC(=O)[C@@H](NC(=O)CNC(=O)[C@H](CCC(=O)O)NC(=O)C(C)(C)NC(=O)[C@@H](N)Cc1ccc(O)cc1)[C@@H](C)O)[C@@H](C)O)[C@@H](C)CC)[C@@H](C)CC)C(=O)N[C@@H](CCC(=O)O)C(=O)NCC(=O)NCC(=O)N1CCC[C@H]1C(=O)N[C@@H](CO)C(=O)N[C@@H](CO)C(=O)NCC(=O)N[C@@H](C)C(=O)N1CCC[C@H]1C(=O)N1CCC[C@H]1C(=O)N1CCC[C@H]1C(=O)N[C@@H](CO)C(=O)N[C@@H](CCCCNC(=O)COCCOCCNC(=O)COCCOCCNC(=O)CC[C@H](NC(=O)CCCCCCCCCOc1ccc(C(=O)O)cc1)C(=O)O)C(N)=O` [Example 238], the concentration for a half-maximal effect (EC50) is above 9950 nM at hGCGR (hGCGR EC50, nM (SEM, n), 0.1% bovine casein and 1.0% human serum albumin, 37° C.); above 9950 nM at hGCGR (hGCGR EC50, nM (SEM, n), cAMP, incubated at 37° C., 0.1% bovine casein (no human serum albumin)); 0.0214 nM on hGIPR (hGIPR EC50, nM (SEM, n), cAMP, incubated at 37° C., 0.1% bovine casein (no human serum albumin)); 27.2 nM on hGLP-1R (hGLP-1R EC50, nM (SEM, n), 0.1% bovine casein and 1.0% human serum albumin, 37° C.); 1.03 nM on hGLP-1R (hGLP-1R EC50, nM (SEM, n), cAMP, incubated at 37° C., 0.1% bovine casein (no human serum albumin)). The maximal response (Emax) on hGIPR (HEK293, read-out: hGIPR Emax, % ± SEM, 0.1% bovine casein and 1.0% human serum albumin, 37° C.) turned out to be 90.5%.
Consider `CCCCCCCCCCCC(=O)N[C@@H](CCC(=O)NCCOCCOCC(=O)NCCOCCOCC(=O)NCCCC[C@H](NC(=O)[C@H](CCCN)NC(=O)[C@H](CC(=O)O)NC(=O)[C@H](CC(C)C)NC(=O)[C@](C)(CC(C)C)NC(=O)[C@@H](NC(=O)[C@H](CO)NC(=O)[C@H](CCCCNC(=O)COCCOCCNC(=O)COCCOCCNC(=O)CC[C@H](NC(=O)CCCCCCCCCCC)C(=O)O)NC(=O)[C@H](CC(=O)O)NC(=O)[C@H](CO)NC(=O)[C@@H](NC(=O)[C@](C)(Cc1ccccc1F)NC(=O)[C@@H](NC(=O)CNC(=O)[C@H](CCC(=O)O)NC(=O)C(C)(C)NC(=O)[C@@H](N)Cc1ccc(O)cc1)[C@@H](C)O)[C@@H](C)O)[C@@H](C)CC)C(=O)N[C@@H](C)C(=O)N[C@@H](CCC(N)=O)C(=O)NC(C)(C)C(=O)N[C@@H](CCC(=O)O)C(=O)N[C@@H](Cc1ccccc1)C(=O)N[C@H](C(=O)N[C@H](CCC(=O)O)C(=O)N[C@@](C)(Cc1ccc(O)cc1)C(=O)N[C@@H](CC(C)C)C(=O)N[C@H](C(=O)N[C@@H](CCC(=O)O)C(=O)NCC(=O)NCC(N)=O)[C@@H](C)CC)[C@@H](C)CC)C(=O)O` [Example 294] (H-Y[Aib]EGT[αMePhe(2-F)]TSDK([AEEA-AEEA-γGlu-Lauroyl])SI[αMeL]LD[Orn]K([AEEA-AEEA-γGlu-Lauroyl])AQ[Aib]EFI[dE][αMeY]LIEGG-NH2), for which the EC50 is above 9950 nM at hGCGR (setting [1]); above 9950 nM on hGCGR (setting [2]); 0.833 nM at hGIPR (setting [3]); 0.00615 nM on hGIPR (setting [6]); 6.26 nM at hGLP-1R (0.1% bovine casein and 1.0% human serum albumin, 37° C., read-out: hGLP-1R EC50, nM (SEM, n)); 0.0665 nM on hGLP-1R (setting [8]). In addition, the maximum response (Emax) on hGIPR (setting [5]) worked out at 105%.
